Data from patent US20250140406A1, “CLASSIFYING TUMORS AND PREDICTING RESPONSIVENESS” (Oncocyte Corporation, priority 2022, published 2025).
Square brackets hold non-standard residues; d marks the D form. Peptide text beside a SMILES is read from it.

How the values were obtained:
[1] = test system: cancer cell lines classified IM, MSL, M; experiment: PRISM screen compound sensitivity correlated with IM, MSL and M subtype of cell lines (101 gene signature); format: cell-based; details: for IM Corr test: correlation of PRISM compound sensitivity with IM subtype correlation; for M Corr test: correlation of PRISM compound sensitivity with M subtype correlation; for MSL Corr test: correlation of PRISM compound sensitivity with MSL subtype correlation; for TNBCType test: test data set
[2] = test system: cancer cell lines, DetermaIO classes; experiment: Association of PRISM compound sensitivity with DetermaIO (DTIO) cell line classes; format: cell-based
[3] = correlation of PRISM compound sensitivity with DTIO; test cell set
[4] = correlation of PRISM compound sensitivity with DTIO; training cell set
[5] = subtype (IM, MSL or M) with which PRISM compound sensitivity is negatively correlated, training cell set, 101 gene signature
[6] = subtype (IM, MSL or M) with which compound sensitivity is negatively correlated, training cell set (371 cell lines), 101 gene signature
[7] = correlation of PRISM compound sensitivity with DTIO (DetermaIO); test cell set (188 cell lines)
[8] = correlation of PRISM compound sensitivity with DTIO (DetermaIO); training cell set (371 cell lines)
[9] = correlation of compound sensitivity with DTIO; test set
[10] = correlation of compound sensitivity with DTIO; training set
[11] = subtype (IM, MSL or M) assigned to the compound by negative correlation of PRISM sensitivity with subtype, training cell set (371 cell lines), 101 gene signature
[12] = correlation of PRISM compound sensitivity with DTIO; test cell set (188 cell lines)
[13] = correlation of PRISM compound sensitivity with DTIO; training cell set (371 cell lines)
[14] = classification of association of compound sensitivity with IM, MSL and M cell line classes, training data set
[15] = association of compound sensitivity with DetermaIO classes; test data set
[16] = association of compound sensitivity with DetermaIO classes; training data set
[17] = classification of association of compound sensitivity with IM, MSL and M cell line classes

SMILES | IM Corr test ([1]; test cell set (188 cell lines)) | M Corr test ([1]; test cell set (188 cell lines)) | MSL Corr test ([1]; test cell set (188 cell lines)) | DTIO Corr test [2, 3] | DTIO Corr train [2, 4] | also measured
Cc1ccc(S(=O)(=O)/C=C/C#N)cc1 [BAY-11-7082] | 0.07793 | −0.1474 | 0.0317 | 0.04014 | −0.00647 | –
Cc1oc2nc3c(c(NC(=O)CN4CCCC4=O)c2c1C)CCCC3 [BCI-540] | – | – | – | 0.01234 | −0.02488 | IM Corr test ([1]; test cell set): 0.07689; M Corr test ([1]; test cell set): −0.08152; MSL Corr test ([1]; test cell set): −0.1815; TNBCType train [1, 5]: MSL
CC(C)CCN1c2nc(Nc3cc(F)c(O)c(F)c3)ncc2N(C)C(=O)C1C (centres unmarked) [BI-D1870] | −0.01584 | 0.01001 | 0.02005 | 0.01854 | −0.09163 | –
C/C(=C\C(=O)Nc1ccccc1C(=O)O)c1ccc2ccccc2c1 [BIBR-1532] | −0.1712 | 0.141 | −0.1482 | −0.226 | −0.05255 | TNBCType train [1, 6]: MSL
CN1C(=O)N(c2cc(Cl)cc(Cl)c2)C(=O)[C@]12CN(Cc1cc(C(=O)O)cs1)C[C@H]2c1ccc(C#N)cc1 [BMS-587101] | −0.05699 | 0.1367 | −0.03676 | −0.08591 | 0.01986 | TNBCType train [1, 6]: MSL
Cc1c(NC(=O)OC[C@@H]2COCCN2)cn2ncnc(Nc3ccc4c(cnn4Cc4cccc(F)c4)c3)c12 [BMS-599626] | −0.1901 | 0.2776 | 0.4191 | −0.02871 | −0.07697 | DTIO Corr test ([2]; correlation of compound sensitivity with DetermaIO (DTIO), test set): −0.02871; DTIO Corr train ([2]; correlation of compound sensitivity with DetermaIO (DTIO), training set): −0.07697
COc1cccc(Nc2ncnn3ccc(CN4CC[C@@H](N)[C@H](O)C4)c23)c1 [BMS-690514] | −0.1648 | 0.2486 | 0.3466 | – | – | DTIO Corr test [2, 7]: 0.01346; DTIO Corr train [2, 8]: −0.1666; DTIO Corr test ([2]; correlation of compound sensitivity with DTIO, test set): 0.01346; DTIO Corr train ([2]; correlation of compound sensitivity with DTIO, training set): −0.1666; DTIO Corr test [2, 9]: 0.01346; DTIO Corr train [2, 10]: −0.1666
COc1cc(C(=O)c2c(C)oc3c(O)c(OC)ccc23)cc(OC)c1OC [BNC105] | – | – | – | −0.1135 | −0.1119 | IM Corr test ([1]; test cell set): −0.07446; M Corr test ([1]; test cell set): −0.08585; MSL Corr test ([1]; test cell set): −0.09188; TNBCType train [1, 5]: MSL
O=C1/C(=C/c2ccccc2)C[C@@]2(O)[C@H]3Cc4ccc(O)c5c4[C@@]2(CCN3CC2CC2)[C@H]1O5 [BNTX] | −0.1371 | 0.09323 | 0.1062 | −0.1085 | −0.1416 | –
CC(C)C[C@@H]1NC(=O)[C@@H](C(C)C)NC(=O)[C@@H]2CCCN2C(=O)[C@@H](CC(=O)O)NC(=O)[C@@H](Cc2c[nH]c3ccccc23)NC1=O [BQ-123] (cyclo(L[dW][dD]P[dV])) | 0.0449 | −0.1374 | −0.1421 | 0.07641 | 0.04394 | TNBCType train [1, 6]: MSL
O=C(Nc1cccc(Nc2ncc(Br)c(NCCc3cnc[nH]3)n2)c1)N1CCCC1 [BX-912] | – | – | – | 0.03523 | 0.04083 | IM Corr test ([1]; test cell set): 0.1542; M Corr test ([1]; test cell set): −0.2367; MSL Corr test ([1]; test cell set): −0.03732
Cc1ccc(-n2sc(=O)n(Cc3ccc(F)cc3)c2=O)cc1 [CCG-50014] | 0.03964 | −0.1198 | −0.2063 | −0.03813 | 0.0404 | –
Nc1nc(-c2ccc(Cl)c(Cl)c2)c(-c2ccncc2)s1 [CGH2466] | −0.07415 | 0.03776 | 0.04331 | – | – | DTIO Corr test [2, 7]: −0.01803; DTIO Corr train [2, 8]: −0.09319
CCCCCCCCCCC(C)(C)C(=O)Nc1c(OC)cc(OC)cc1OC [CI-976] | 0.06082 | −0.082 | −0.03363 | – | – | TNBCType train [1, 11]: MSL; DTIO Corr test [2, 7]: 0.03532; DTIO Corr train [2, 8]: 0.09198
C=CC(=O)Nc1cccc(Nc2nc(Nc3ccc(Oc4ccnc(C(=O)NC)c4)cc3)ncc2F)c1 [CNX-774] | – | – | – | 0.1389 | 0.07802 | IM Corr test ([1]; test cell set): 0.09358; M Corr test ([1]; test cell set): −0.09506; MSL Corr test ([1]; test cell set): 0.02463
O=C(O)C1CN(CCCP(=O)(O)O)CCN1 (centres unmarked) [CPP] | −0.04467 | −0.01154 | −0.2411 | – | – | TNBCType train [1, 11]: MSL; DTIO Corr test [2, 7]: −0.04842; DTIO Corr train [2, 8]: −0.04563
CCn1c(=O)[nH]c2cc(Cl)c(Cl)cc21 [DCEBIO] | 0.1207 | −0.1198 | −0.1352 | – | – | DTIO Corr test [2, 7]: 0.121; DTIO Corr train [2, 8]: 0.1577

SMILES | IM Corr test ([1]; test cell set (188 cell lines)) | M Corr test ([1]; test cell set (188 cell lines)) | MSL Corr test ([1]; test cell set (188 cell lines)) | DTIO Corr test [2, 3] | DTIO Corr train [2, 4] | also measured
CC(=O)Nc1ccc(Cc2ccc(NC(C)=O)cc2)cc1 [FH1] | – | – | – | −0.06073 | −0.08253 | IM Corr test ([1]; test cell set): −0.11; M Corr test ([1]; test cell set): 0.01237; MSL Corr test ([1]; test cell set): −0.1426
NC(=O)c1cccc(-c2cc(Nc3ccc(OC(F)(F)F)cc3)ncn2)c1 [GNF-2] | −0.03304 | −0.07177 | −0.05938 | – | – | DTIO Corr test [2, 12]: −0.02831; DTIO Corr train [2, 13]: −0.02935
CCCCC#Cc1nc(NC)c2ncn([C@@H]3O[C@H](CO)[C@@H](O)[C@H]3O)c2n1 [HEMADO] | – | – | – | −0.09381 | −0.08651 | IM Corr test ([1]; test cell set): −0.0662; M Corr test ([1]; test cell set): 0.05737; MSL Corr test ([1]; test cell set): 0.1849
O=C1[C@H](Cc2ccc(O)cc2)N2C(=O)CCN(C(=O)NCc3ccccc3)[C@H]2CN1Cc1cccc2ccccc12 [ICG-001] | 0.1415 | −0.2223 | 0.01929 | – | – | DTIO Corr test [2, 12]: 0.1635; DTIO Corr train [2, 13]: 0.1783; DTIO Corr test [2, 9]: 0.1635; DTIO Corr train [2, 10]: 0.1783
O=C(O)CCC/C=C\C[C@@H]1CO[C@H](C(F)(F)F)O[C@@H]1c1ccccc1O [ICI-185,282] | – | – | – | −0.02205 | −0.09302 | IM Corr test ([1]; test cell set): −0.05673; M Corr test ([1]; test cell set): 0.07129; MSL Corr test ([1]; test cell set): 0.1418
NC(=O)CCCCn1ccc(NC(N)=NCC(F)(F)F)n1 [ICI-162846] | −0.1537 | 0.1647 | 0.0517 | −0.05711 | −0.09255 | –
O=C(O)CNC(=O)c1c(O)c2ccccc2n(Cc2ccccc2)c1=O [IOX2] | −0.04037 | 0.09066 | 0.01906 | – | – | DTIO Corr test [2, 12]: −0.06501; DTIO Corr train [2, 13]: −0.0409
Cc1cc(C)cc(C(=O)N(C)[C@H](Cc2ccc(-c3ccccc3)cc2)C(=O)N[C@@H](Cc2c[nH]c3ccccc23)C(=O)O)c1 [IRL-2500] | −0.01191 | 0.007861 | −0.1214 | – | – | DTIO Corr test [2, 12]: 0.02691; DTIO Corr train [2, 13]: −0.06473
O=C(Nc1ccc(C(F)(F)F)cn1)N1CCN(c2ncccc2C(F)(F)F)CC1 [JNJ-17203212] | – | – | – | −0.00666 | −0.1037 | IM Corr test ([1]; test cell set): −0.03139; M Corr test ([1]; test cell set): 0.03655; MSL Corr test ([1]; test cell set): 0.142
CCCCCOc1c(OC)ccc2cc(C(=O)NCc3ccc4c(c3)OCO4)c(=O)[nH]c12 [JTE-907] | −0.05167 | 0.08725 | −0.01924 | – | – | DTIO Corr test [2, 7]: −0.04389; DTIO Corr train [2, 8]: −0.131
Clc1ccc(C2(c3ccc(-c4cn[nH]c4)cc3)CCNCC2)cc1 [K12040459] | – | – | – | – | – | TNBCType train [1, 14]: MSL; DTIO Corr test [2, 15]: 0.003574; DTIO Corr train [2, 16]: 0.04812
C[C@@H]1NC(C)(C)CO[C@@]1(O)c1cccc(Cl)c1 [K13394247] | – | – | – | – | – | TNBCType test [1, 17]: MSL; DTIO Corr test [2, 15]: −0.04236; DTIO Corr train [2, 16]: 0.0598
C[C@@H](Oc1ccc2[nH]nc(/C=C/c3cnn(CCO)c3)c2c1)c1c(Cl)cncc1Cl [K17203476] | – | – | – | – | – | TNBCType test [1, 17]: MSL; DTIO Corr test [2, 15]: −0.0838; DTIO Corr train [2, 16]: −0.1449
O=C(NCc1cccc(O)c1)Nc1nc(-c2ccncc2)cs1 [K19333160] | – | – | – | – | – | TNBCType test [1, 17]: MSL; TNBCType train [1, 14]: MSL; DTIO Corr test [2, 15]: 0.08122; DTIO Corr train [2, 16]: 0.04633
COc1cc(Nc2ncc(F)c(Nc3ccc4c(n3)NC(=O)C(C)(C)O4)n2)cc(OC)c1OC [K20285085] | – | – | – | – | – | TNBCType test [1, 17]: MSL; TNBCType train [1, 14]: MSL; DTIO Corr test [2, 15]: −0.04153; DTIO Corr train [2, 16]: −0.1076
COc1cc(-c2ccc(=O)[nH]n2)ccc1OC(F)F [K37561857] | – | – | – | – | – | TNBCType test [1, 17]: MSL; DTIO Corr test [2, 15]: 0.1699; DTIO Corr train [2, 16]: 0.1782
